# How the values were obtained:
# Assay in all cases: relative viability (nuclei count vs DMSO), 5 days (fraction); higher = more cells survive
# HCC-44 = system: HCC-44
# Method in brief: (§1)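 Dosing by pin tool came one day after lung cancer cell lines were seeded in 1536-well plates, using either one drug or a fixed anchor-drug dose plus five library-drug doses (not always all listed) in √10 steps. After 5 days, nuclei were counted on 4× images. Relative viability is treated-well nuclei count divided by vehicle-well nuclei count, and values are medians of duplicate plates.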
# NCI-H596 = system: NCI-H596
# Method in brief: as §1
# HCC-366 = system: HCC-366
# Method in brief: as §1
# NCI-H647 = system: NCI-H647
# Method in brief: as §1
# NCI-H1944 = system: NCI-H1944
# Method in brief: as §1
# NCI-H322M = system: NCI-H322M
# Method in brief: as §1
# NCI-H2023 = system: NCI-H2023
# Method in brief: as §1
# 201T = system: 201T
# Method in brief: as §1
# NCI-H1734 = system: NCI-H1734
# Method in brief: as §1
# NCI-H2228 = system: NCI-H2228
# Method in brief: as §1
# NCI-H2087 = system: NCI-H2087
# Method in brief: as §1
# PC-3 [JPC-3] = system: PC-3 [JPC-3]
# Method in brief: as §1
# NCI-H1651 = system: NCI-H1651
# Method in brief: as §1
# SK-LU-1 = system: SK-LU-1
# Method in brief: as §1
# LOU-NH91 = system: LOU-NH91
# Method in brief: as §1
# HCC-78 = system: HCC-78
# Method in brief: as §1
# IA-LM = system: IA-LM
# Method in brief: as §1
# LK-2 = system: LK-2
# Method in brief: as §1
# NCI-H2085 = system: NCI-H2085
# Method in brief: as §1
# NCI-H1437 = system: NCI-H1437
# Method in brief: as §1
# EBC-1 = system: EBC-1
# Method in brief: as §1
# ABC-1 = system: ABC-1
# Method in brief: as §1
# PC-14 = system: PC-14
# Method in brief: as §1
smiles,measurement,setting,value
Nc1cccc2c1CN(C1CCC(=O)NC1=O)C2=O (configuration not stated) [Lenalidomide] + C[C@]1(O)C[C@@H](c2nc(-c3ccc4ccc(-c5ccccc5)nc4c3)c3c(N)nccn32)C1 [Linsitinib] (partner 1 µM),relative viability,HCC-44; first compound 0.253 µM,0.648
same,relative viability,HCC-44; first compound 0.8 µM,0.537
same,relative viability,HCC-44; first compound 2.53 µM,0.738
same,relative viability,HCC-44; first compound 8 µM,0.522
same,relative viability,NCI-H596; first compound 0.253 µM,1.07
same,relative viability,NCI-H596; first compound 0.8 µM,1.03
same,relative viability,NCI-H596; first compound 2.53 µM,1.23
same,relative viability,NCI-H596; first compound 8 µM,0.969
same,relative viability,HCC-366; first compound 0.253 µM,0.689
same,relative viability,HCC-366; first compound 0.8 µM,0.548
same,relative viability,HCC-366; first compound 2.53 µM,0.601
same,relative viability,HCC-366; first compound 8 µM,0.424
same,relative viability,NCI-H647; first compound 0.253 µM,1.16
same,relative viability,NCI-H647; first compound 0.8 µM,1.14
same,relative viability,NCI-H647; first compound 2.53 µM,1.32
same,relative viability,NCI-H647; first compound 8 µM,0.932
same,relative viability,NCI-H1944; first compound 0.253 µM,1.15
same,relative viability,NCI-H1944; first compound 0.8 µM,1.27
same,relative viability,NCI-H1944; first compound 2.53 µM,1.24
same,relative viability,NCI-H1944; first compound 8 µM,0.948
same,relative viability,NCI-H322M; first compound 0.253 µM,0.912
same,relative viability,NCI-H322M; first compound 0.8 µM,1.06
same,relative viability,NCI-H322M; first compound 2.53 µM,0.856
same,relative viability,NCI-H322M; first compound 8 µM,0.708
same,relative viability,NCI-H2023; first compound 0.253 µM,0.68
same,relative viability,NCI-H2023; first compound 0.8 µM,0.831
same,relative viability,NCI-H2023; first compound 2.53 µM,0.681
same,relative viability,NCI-H2023; first compound 8 µM,0.695
same,relative viability,201T; first compound 0.253 µM,1.08
same,relative viability,201T; first compound 0.8 µM,1.18
same,relative viability,201T; first compound 2.53 µM,1.05
same,relative viability,201T; first compound 8 µM,0.908
same,relative viability,NCI-H1734; first compound 0.253 µM,0.878
same,relative viability,NCI-H1734; first compound 0.8 µM,1
same,relative viability,NCI-H1734; first compound 2.53 µM,0.934
same,relative viability,NCI-H1734; first compound 8 µM,0.688
same,relative viability,NCI-H2228; first compound 0.253 µM,0.598
same,relative viability,NCI-H2228; first compound 0.8 µM,0.774
same,relative viability,NCI-H2228; first compound 2.53 µM,0.802
same,relative viability,NCI-H2228; first compound 8 µM,0.639
same,relative viability,NCI-H2087; first compound 0.253 µM,0.98
same,relative viability,NCI-H2087; first compound 0.8 µM,0.919
same,relative viability,NCI-H2087; first compound 2.53 µM,0.915
same,relative viability,NCI-H2087; first compound 8 µM,1.09
same,relative viability,PC-3 [JPC-3]; first compound 0.253 µM,0.969
same,relative viability,PC-3 [JPC-3]; first compound 0.8 µM,0.923
same,relative viability,PC-3 [JPC-3]; first compound 2.53 µM,1
same,relative viability,PC-3 [JPC-3]; first compound 8 µM,1.09
same,relative viability,NCI-H1651; first compound 0.253 µM,0.995
same,relative viability,NCI-H1651; first compound 0.8 µM,0.968
same,relative viability,NCI-H1651; first compound 2.53 µM,1.18
same,relative viability,NCI-H1651; first compound 8 µM,0.973
same,relative viability,SK-LU-1; first compound 0.253 µM,1.1
same,relative viability,SK-LU-1; first compound 0.8 µM,1.01
same,relative viability,SK-LU-1; first compound 2.53 µM,1.19
same,relative viability,SK-LU-1; first compound 8 µM,1.16
same,relative viability,LOU-NH91; first compound 0.253 µM,0.912
same,relative viability,LOU-NH91; first compound 0.8 µM,0.977
same,relative viability,LOU-NH91; first compound 2.53 µM,0.922
same,relative viability,LOU-NH91; first compound 8 µM,0.847
same,relative viability,HCC-78; first compound 0.253 µM,0.55
same,relative viability,HCC-78; first compound 0.8 µM,0.466
same,relative viability,HCC-78; first compound 2.53 µM,0.605
same,relative viability,HCC-78; first compound 8 µM,0.383
same,relative viability,IA-LM; first compound 0.253 µM,0.605
same,relative viability,IA-LM; first compound 0.8 µM,0.468
same,relative viability,IA-LM; first compound 2.53 µM,0.667
same,relative viability,IA-LM; first compound 8 µM,0.49
same,relative viability,LK-2; first compound 0.253 µM,0.427
same,relative viability,LK-2; first compound 0.8 µM,0.355
same,relative viability,LK-2; first compound 2.53 µM,0.428
same,relative viability,LK-2; first compound 8 µM,0.451
same,relative viability,NCI-H2085; first compound 0.253 µM,0.876
same,relative viability,NCI-H2085; first compound 0.8 µM,0.877
same,relative viability,NCI-H2085; first compound 2.53 µM,1.03
same,relative viability,NCI-H2085; first compound 8 µM,0.933
same,relative viability,NCI-H1437; first compound 0.253 µM,0.992
same,relative viability,NCI-H1437; first compound 0.8 µM,1.15
same,relative viability,NCI-H1437; first compound 2.53 µM,1.21
same,relative viability,NCI-H1437; first compound 8 µM,1.08
same,relative viability,EBC-1; first compound 0.253 µM,0.826
same,relative viability,EBC-1; first compound 0.8 µM,0.849
same,relative viability,EBC-1; first compound 2.53 µM,1.09
same,relative viability,EBC-1; first compound 8 µM,0.774
same,relative viability,ABC-1; first compound 0.253 µM,0.589
same,relative viability,ABC-1; first compound 0.8 µM,0.732
same,relative viability,ABC-1; first compound 2.53 µM,0.71
same,relative viability,ABC-1; first compound 8 µM,0.85
same,relative viability,PC-14; first compound 0.253 µM,0.925
same,relative viability,PC-14; first compound 0.8 µM,0.988
same,relative viability,PC-14; first compound 2.53 µM,0.978
same,relative viability,PC-14; first compound 8 µM,0.969

# From the supplement of paper PMC10307832
